Results: patent US4857455A, “Method for the determination of peroxidase using fluorogenic substrates” (Syntex (U.S.A) Inc., priority 1982, dated 1989)
Several values for one entry are separate records, joined by “and”; a condition that tells them apart may be missing. Equal values may be shown once. Blank lines part the entries; values can stand above or below the compound they belong to.

How the values were obtained:
Format in all cases: biochemical, horseradish
HRP-antiPRP conjugate = biological target: T1, HRP-antiPRP conjugate (Armoracia rusticana, UniProt P00433); test: microtiter plate PRP immunoassay with HRP-antiPRP conjugate and fluorogenic substrate; details: 10 minute incubation at 37° C.; for Fluorescence with PRP: 50 ng/ml PRP; for Fluorescence without PRP: PBS buffer instead of PRP
T1 construct: purchased Sigma
T1 sequence (P00433 31-338 limits assumed): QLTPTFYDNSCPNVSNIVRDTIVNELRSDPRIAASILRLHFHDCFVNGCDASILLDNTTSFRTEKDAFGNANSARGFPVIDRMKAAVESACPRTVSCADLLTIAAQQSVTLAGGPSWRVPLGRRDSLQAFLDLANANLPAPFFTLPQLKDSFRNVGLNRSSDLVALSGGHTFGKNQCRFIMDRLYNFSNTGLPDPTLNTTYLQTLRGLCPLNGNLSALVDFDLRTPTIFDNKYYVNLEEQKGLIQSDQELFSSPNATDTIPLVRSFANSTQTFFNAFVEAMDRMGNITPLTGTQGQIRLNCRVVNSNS
Description: Microtiter plate wells were coated with a solution (250 μl/well) of an amine modified glucose oxidase (1 to 190 dilution, 7.6 mg/ml stock solution) and antibodies to polyribosephosphate (1:2000 dilution in 60 mM carbonate buffer, pH 9.6). After standing overnight, the wells were washed with PBS containing 0.05% Tween 20 (W/V).
A stock solution was prepared of the fluorogenic substrate of Example II. A 3.8 mg/10 ml DMF solution (1.22 mM) was diluted 1:10 with PBS buffer immediately before use. A substrate mixture was prepared containing 500 μl of the above stock solution, 694 μl of 1.8M glucose, 400 μl of a stock catalase solution and the volume brought to 2 ml with PBS buffer. The stock catalase solution (3.1-4 mg/ml) was prepared by dialysing catalase (C-100 Sigma) in PBS pH 7.2.
The following protocol was then employed for the assay. Into each microtiter well coated with amino glucose oxidase (see copending application serial No. 398,505, filed July 15, 1982) and antiPRP was added 100 μl of 50 ng/ml PRP or 100 μl of PBS buffer (pH 7.2) and the mixture incubated for one hour at room temperature. At the end of this time, 50 μl of HRP-antiPRP conjugate was added followed by another one hour incubation. At the end of this time, 100 μl of a substrate mixture was added, followed by a 10 minute incubation at 37° C. with shaking, after which time 200 μl of the incubation mixture was diluted with 1.8 ml, of 0.1M phosphate buffer (pH 8.0) and the fluorescence read.

horse radish peroxidase [1] = biological target: T2, horse radish peroxidase (Armoracia rusticana, UniProt P00433); test: change in fluorescence of substrate with HRP and hydrogen peroxide over 60 seconds; details: substrate 800 μl, H2O2 100 μl, 60 second interval, pH 8
T2 sequence (P00433 31-353): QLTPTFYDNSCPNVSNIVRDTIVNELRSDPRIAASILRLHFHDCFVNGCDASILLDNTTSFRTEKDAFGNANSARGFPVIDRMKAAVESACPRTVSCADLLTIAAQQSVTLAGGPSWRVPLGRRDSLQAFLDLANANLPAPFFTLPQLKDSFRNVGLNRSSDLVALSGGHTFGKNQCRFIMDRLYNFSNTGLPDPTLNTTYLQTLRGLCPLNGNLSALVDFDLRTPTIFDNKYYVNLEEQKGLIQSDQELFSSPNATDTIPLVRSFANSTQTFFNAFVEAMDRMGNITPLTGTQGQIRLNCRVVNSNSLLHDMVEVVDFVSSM
Description: (§1) In the next assay, the fluorogenic precursor of Example I was employed. […] An assay solution was prepared comprising the […] compound of Example I, hydrogen peroxide, horse radish peroxidase, and buffer (0.1M phosphate, pH 8.0) and the change in fluorescence in the solution determined over a 60 second interval. The substrate solution which was added was 3.9 mg/100 ml concentration in buffer, the hydrogen peroxide was 9.×10^-4 M, the HRP solution was 6.6 ng/ml containing 0.5 mgBSA/ml and the buffer was 0.1M phosphate, pH 8. The following table indicates the results.

horse radish peroxidase [2] = test: as above; details: HRP solution (6.6 ng/ml) 0 μl, substrate 800 μl, H2O2 100 μl, buffer 100 μl; 60 second interval, pH 8
Description: as §1

HRP = biological target: T3, HRP (Armoracia rusticana, UniProt P00433); test: qualitative test as HRP substrate (generation of a fluorescent product with HRP and H2O2); details: with HRP and H2O2 in aqueous solution, result in words
T3 sequence (P00433 31-353): T2 sequence (P00433 31-353)
Description: The sample was filtered through a sintered glass filter to obtain a clear solution, the solvent evaporated and the residue dissolved in 5 ml DMF. The solution was then evaporated to dryness, dissolved in 1 ml. DMF, followed by a dilution with 4 ml buffer and an assay carried out as described previously employing 100 microliters of the substrate.

[3] = HRP-antiPRP dilution 0 (no conjugate)

SMILES: Cc1cc(Oc2ccc3cc(C(=O)O)c(=O)oc3c2)ccc1N [Example II, 3-carboxy-7-(3'-methyl-4'-aminophenoxy)coumarin]
- Fluorescence with PRP (HRP-antiPRP conjugate; [3]): 2.2
- Fluorescence without PRP (HRP-antiPRP conjugate; [3]): 2.4
- Fluorescence with PRP (HRP-antiPRP conjugate; HRP-antiPRP dilution 1:80): 79.5
- Fluorescence without PRP (HRP-antiPRP conjugate; HRP-antiPRP dilution 1:80): 67.1
- Fluorescence with PRP (HRP-antiPRP conjugate; HRP-antiPRP dilution 1:320): 31.8 and 29.6 and 32.5
- Fluorescence without PRP (HRP-antiPRP conjugate; HRP-antiPRP dilution 1:320): 11.0 and 14.2 and 13.4
- Fluorescence with PRP (HRP-antiPRP conjugate; HRP-antiPRP dilution 1:1280): 13.8
- Fluorescence without PRP (HRP-antiPRP conjugate; HRP-antiPRP dilution 1:1280): 5.2

SMILES: Nc1ccc(Oc2ccc3cc(C(=O)O)c(=O)oc3c2)cc1 [Example I, 3-carboxy-7-(4'-aminophenoxy)coumarin]
- ΔF (horse radish peroxidase [1]; HRP solution (6.6 ng/ml) 20 μl, buffer 80 μl): 11.0
- ΔF (horse radish peroxidase [1]; HRP solution (6.6 ng/ml) 50 μl, buffer 50 μl): 16.2
- ΔF (horse radish peroxidase [1]; HRP solution (6.6 ng/ml) 100 μl, buffer 0 μl): 29.7 and 30.4
- ΔF (horse radish peroxidase [2]): 6.6

SMILES: O=C(O)CNc1ccc(Oc2ccc3cc(C(=O)O)c(=O)oc3c2)cc1 [Example III, 3-carboxy-7-(N-carboxymethyl 4'-aminophenoxy)coumarin]
- activity as HRP substrate (HRP): useful as an HRP substrate

Further lines, results first:

- activity as HRP substrate (HRP): active as an HRP substrate
SMILES: Cc1cc(Oc2ccc3cc(C(=O)N[C@H]4C(O)O[C@H](CO)[C@@H](O)[C@@H]4O)c(=O)oc3c2)ccc1N (stereo partly shown) [Example V, glucosamine derivative of 3-carboxy-7-(3'-methyl-4'aminophenoxy)coumarin]

- activity as HRP substrate (HRP): active HRP substrate
SMILES: Cc1cc(Oc2ccc3cc(C(=O)O)c(=O)oc3c2)cc(Br)c1N [Example VI, 3-carboxy-7-(3'-methyl-4'-amino-5'-bromophenoxy)coumarin]

- activity as HRP substrate (HRP): useful as a HRP substrate
SMILES: Cc1cc(Oc2ccc3cc(C(=O)NCCS(=O)(=O)O)c(=O)oc3c2)ccc1N [Example IV, taurine derivative of 3-carboxy-7-(3'-methyl-4'-aminophenoxy)coumarin]
